{"source": "paper PMC4671089", "about": "“Enhanced Detection of Antigen-Specific CD4^+ T Cells Using Altered Peptide Flanking Residue Peptide–MHC Class II Multimers” (The Journal of Immunology Author Choice, 2015)", "key": {"[1]": {"test_system": "CD4+ T cell clone 2C5", "test": "pMHC-II multimer staining of CD4+ T cell clone 2C5", "format": "cell-based, human", "details": "DR1-Flu3 versus DR1-Flu1 multimer; 1 μg multimer, 1 × 10^5 cells, 20 min at 4°C", "description": "(§1) Clonal CD4^+ T cells (1 × 10^5) specific for HA306–318 were resuspended with 1 μg DR1-Flu1 or DR1-Flu3 multimer and incubated for 20 min at 4°C ([45]). Cells were then washed twice with PBS, stained with Live/Dead fixable violet (ViViD; Invitrogen) for 10 min at room temperature and labeled with mouse anti-human CD4-allophycocyanin (BD Biosciences) for 20 min at 4°C. After two further washes in PBS, samples were acquired directly on a FACSCanto II flow cytometer (BD Biosciences). Data were analyzed using FlowJo software version 10 (Tree Star). All incubations with fluorochrome-conjugated pMHC-II multimers were performed in the dark."}, "[2]": {"test_system": "CD4+ T cells in DR1+ PBMCs ex vivo", "format": "cell-based, human"}, "[3]": {"test_system": "CD4+ T cell clone 2C5 spiked into PBMCs", "test": "Clone dilution assay", "format": "cell-based, human", "details": "0.125 μg multimer/1 × 10^6 PBMCs", "description": "PBMCs (2 × 10^6) were spiked at 1, 0.5, 0.25, 0.125, 0.0625, or 0.0312% with the CD4^+ T cell clone 2C5. Cell mixtures were then stained with 0.125 μg multimer/1 × 10^6 PBMCs and labeled with Abs as described in the previous section. Samples were acquired directly on a FACSCanto II flow cytometer (BD Biosciences) and analyzed using FlowJo software version 10 (Tree Star)."}, "[4]": {"test_system": "CD4+ T cell clone DC-C10", "test": "Multimer staining of CD4+ T cell clone DC-C10", "format": "cell-based, human", "details": "histograms, Fig. 6B", "description": "as §1"}, "[5]": {"test_system": "CD4+ T cell clone 2C5 spiked at 1% into DR1+ PBMCs", "test": "Multimer dilution assay", "format": "cell-based, human", "description": "Each multimer was serially diluted six times (1, 0.5, 0.25, 0.125, 0.0625, 0.0312, or 0.0156 μg with respect to the pMHC-II component) and used in a final volume of 20 μl to stain 1 × 10^6 DR1^+ PBMCs spiked at 1% with the CD4^+ T cell clone 2C5. After incubation for 20 min at 4°C, cells were washed twice in PBS, stained with Live/Dead fixable aqua (Invitrogen) for 10 min at room temperature and labeled with mouse anti-human CD3-FITC (Serotec), mouse anti-human CD4-allophycocyanin (BD Biosciences), mouse anti-human CD14–Pacific Blue (Invitrogen), and mouse anti-human CD19–Pacific Blue (Invitrogen) for 20 min at 4°C. After two further washes in PBS, samples were acquired directly on a FACSCanto II flow cytometer (BD Biosciences). Data were analyzed using FlowJo software version 10 (Tree Star)."}, "[6]": {"test_system": "HA1.7 TCR", "test": "Thermodynamic analysis (SPR, nonlinear van't Hoff) of HA1.7 TCR ligation", "format": "binding, human", "details": "HA1.7-DR1-Flu3, 298 K; Biacore T100; 10 serial dilutions of TCR at 5, 10, 15, 20, 25, 30°C; triplicate", "description": "Thermodynamic analysis of HA1.7 TCR ligation to DR1-Flu3 was performed using a Biacore T100 (GE Healthcare) equipped with a CM5 sensor chip. Activation and pMHC-II loading were assessed as previously described ([40]). A total of 500 response units of biotinylated pMHC-II were immobilized to streptavidin, which was chemically linked to the chip surface. Equilibrium binding analysis was performed with 10 serial dilutions of the TCR individually injected at temperatures of 5, 10, 15, 20, 25, and 30°C. Experiments were performed in triplicate using a blank flow cell, A2-[…] and DR1-CLIP as negative controls in separate experiments. The binding response was determined by subtraction of the response measured on a negative control flow cell from the response measured on flow cells containing DR1-Flu3. Results were analyzed using BIAevaluation 3.1, Microsoft Excel, and Origin 6.1. The KD values were calculated using a nonlinear curve fit [y = (P1x)/(P2 + x)]."}, "[7]": {"test_system": "CD4+ T cell clone DC-D8", "test": "Multimer staining of CD4+ T cell clone DC-D8", "format": "cell-based, human", "details": "histograms, Fig. 6C", "description": "as §1"}, "[8]": {"test_system": "Flu1 peptide-stimulated DR1+ PBMCs of donor 4 (CD4+ T cells)", "test": "Dual multimer staining following PBMC culture", "format": "cell-based, human", "details": "dual stain 1 vs dual stain 2, donor 4", "description": "(§2) Flu1 peptide–stimulated, precultured PBMCs (5 × 10^5) were transferred to a 96-well plate and washed with PBS. Cell pellets were resuspended in 25 nM […] dasatinib (Axon Medchem, Reston, VA) and incubated for 30 min at 37°C. For each multimer, 0.5 μg was added directly to the cell pellet before incubating for 20 min on ice in the dark. Where dual staining with both PE- and allophycocyanin-conjugated multimers was used, 0.5 μg each was mixed per sample prior to addition to the cell pellets. Cells were then washed twice with cold PBS, followed by Live/Dead aqua (Life Technologies) staining to exclude dead cells. Surface staining was subsequently performed in PBS, 2.5% FCS, and 5 mM EDTA (FACS buffer), with the following cell surface markers: CD3-PerCP-Cy5.5 (BD Biosciences), CD4–Brilliant Violet 421 (BioLegend), CD14-FITC (BioLegend), and CD19-FITC (BioLegend). Cells were incubated for 20 min at 4°C in the dark before resuspending in FACS buffer for acquisition on a FACSCanto II (BD Biosciences). Data were analyzed using FlowJo version 10 (Tree Star)."}, "[9]": {"test_system": "CD4+multimer+ T cells in PBMCs after influenza vaccination", "format": "cell-based, human"}, "[10]": {"test_system": "Flu1 peptide-stimulated DR1+ PBMCs (CD4+ T cells)", "test": "Multimer staining following PBMC culture", "format": "cell-based, human", "details": "four DR1+ donors, 12 d after HA306–318 stimulation", "description": "as §2"}, "[11]": {"target": "2C5 TCR", "test": "SPR equilibrium binding of 2C5 TCR to DR1-peptide", "design": "species or system human", "details": "25°C; for Kd: SPR equilibrium binding, Biacore 3000, CM5 chip, biotinylated pMHC-II immobilized on streptavidin, 2C5 TCR injected in eight serial dilutions, 45 μl/min", "description": "Binding analysis was performed using a Biacore 3000 (GE Healthcare) equipped with a CM5 sensor chip, as reported previously ([43], [44]). Between 200 and 400 response units of biotinylated pMHC-II was immobilized on streptavidin, which was chemically linked to the chip surface. pMHC-II was injected at a slow-flow rate (10 μl/min) to ensure uniform distribution on the chip surface. The 2C5 TCR was purified and concentrated to ∼100 μM on the day of analysis to minimize TCR aggregation. For equilibrium analysis, eight serial dilutions were carefully prepared and injected over the relevant sensor chip at a flow rate of 45 μl/min at 25°C. Results were analyzed using BIAevaluation 3.1, Microsoft Excel, and Origin 6.1. The KD values were calculated using a nonlinear curve fit [y = P1x/(P2 + x)]."}, "[12]": {"test_system": "HA1.7 TCR", "details": "HA1.7-DR1-Flu1, 298 K, nonlinear regression of temperature vs free energy; previously published; cited from earlier work", "excerpt": "FIGURE 1. The biophysical impact of altered C-terminal PFRs on TCR binding. SPR was used to determine equilibrium binding of the 2C5 TCR to DR1 complexed with either (A) native Flu1 (HA306−318, […]) or (B) altered Flu3 ([…]). (C) Previously published thermodynamic analysis of the HA1.7-DR1-Flu1 interaction ([40]). (D) HA1.7-DR1-Flu3 thermodynamic properties showing enthalpy (ΔH^o) and entropy (TΔS^o) at 298 K calculated by nonlinear regression of temperature (K) plotted against free energy (ΔG^o). TEXT PRINTED IN THE PICTURE: (A) 2C5-DR1-Flu1: KD = 30 ± 2 μM | (B) 2C5-DR1-F ..."}, "[13]": {"test_system": "HA1.7, F11, and C6 TCRs", "details": "three TCRs HA1.7, F11, C6; presented by DR1; vs Flu1; cited from earlier work"}, "[14]": {"test_system": "T cells of three DR1+ donors", "test": "IFN-γ ELISPOT", "format": "cell-based, human", "details": "all three donors; data not shown"}}, "note": "Where two headings read alike, the source gives them in different places."}
{"sequence": "PKYVKQNTLKLAR [DR1-Flu3, HLA-DR1 heterodimer complexed with altered Flu3 ([…]); monomer in SPR, fluorochrome-tagged multimer in staining]", "values": [{"measurement": "mean fluorescence intensity (MFI) of staining of 2C5 clone", "setting": "[1]", "value": "A large increase in mean fluorescence intensity (MFI)"}, {"measurement": "MFI, fold higher than DR1-Flu1", "setting": "[2]", "value": 3, "unit": "fold"}, {"measurement": "proportion of CD4+ T cells stained compared with DR1-Flu1 multimer", "setting": "[2]", "value": "stained a higher proportion of CD4^+ T cells"}, {"measurement": "ability to detect cognate CD4+ T cells across range of spiked frequencies", "setting": "[3]; 2C5 spiked at 1 to 0.0312%, compared with DR1-Flu1", "value": "far superior ability to detect cognate CD4^+ T cells across the entire range of spiked frequencies"}, {"measurement": "staining of clone DC-C10", "setting": "[4]", "value": "stained"}, {"measurement": "identification of CD4+multimer+ population at 1 μg/1 × 10^6 PBMCs", "setting": "[5]; PBMCs spiked at 1% with 2C5, 20 min at 4°C", "value": "enabled clear visualization and accurate enumeration"}, {"measurement": "lowest multimer concentration with distinct staining", "setting": "[5]; PBMCs spiked at 1% with 2C5, 20 min at 4°C, distinct staining at concentrations down to this value", "value": 0.0312, "unit": "μg/1 × 10^6 PBMCs"}, {"measurement": "optimal quantity of multimer per stain", "setting": "[5]; greatest shift in MFI while reducing potential nonspecific staining", "value": 0.125, "unit": "μg/1 × 10^6 PBMCs"}, {"measurement": "TΔS°", "setting": "[6]", "value": 20, "unit": "kcal/mol"}, {"measurement": "ΔH°", "setting": "[6]", "value": 16.4, "unit": "kcal/mol"}, {"measurement": "staining of clone DC-D8", "setting": "[7]", "value": "stained"}, {"measurement": "detection of additional, presumably lower avidity, cells compared with DR1-Flu1", "setting": "[8]", "value": "able to detect additional, presumably lower avidity, cells compared with DR1-Flu1"}, {"measurement": "population of CD4+ T cells identified compared with DR1-Flu1 multimer", "setting": "[9]", "value": "identified a larger population of CD4^+ T cells"}, {"measurement": "CD4+multimer+ population size and MFI compared with DR1-Flu1 multimer", "setting": "[10]", "value": "detected larger populations of CD4^+multimer^+ cells, with generally greater MFIs"}, {"measurement": "Kd", "setting": "[11]", "value": "16 ± 2", "unit": "µM"}, {"measurement": "affinity of 2C5 TCR, fold stronger compared with wild-type C-terminal PFR sequence", "setting": "[11]; SPR, vs DR1-Flu1", "value": "~2", "unit": "fold"}]}
{"sequence": "PKYVKQNTLKLAT [DR1-Flu1, HLA-DR1 heterodimer complexed with native Flu1 (HA306−318, …); monomer in SPR, fluorochrome-tagged multimer in staining]", "values": [{"measurement": "spiked frequency at which precise quantification was almost impossible", "setting": "[3]; poor separation", "value": "≤ 0.25", "unit": "%"}, {"measurement": "staining of clone DC-C10", "setting": "[4]", "value": "stained"}, {"measurement": "identification of cognate CD4+ T cells at lower reagent concentrations", "setting": "[5]; below 1 μg/1 × 10^6 PBMCs, PBMCs spiked at 1% with 2C5", "value": "failed to identify cognate CD4^+ T cells"}, {"measurement": "staining of clone DC-D8", "setting": "[7]", "value": "stained"}, {"measurement": "TΔS°", "setting": "[12]", "value": 23.8, "unit": "kcal/mol"}, {"measurement": "ΔH°", "setting": "[12]", "value": 18, "unit": "kcal/mol"}, {"measurement": "Kd", "setting": "[11]", "value": "30 ± 2", "unit": "µM"}]}
{"sequence": "PKYVKQNTLKLAR [Flu3, C-terminally modified variants of HA306−318 with Arg at P11 (Flu3, […])]", "values": [{"measurement": "binding affinity increase", "setting": "[13]", "value": "~2", "unit": "fold"}]}
{"sequence": "PKYVKQNTLKLAT [Flu1, influenza HA306–318 (Flu1), …]", "values": [{"measurement": "T cell responses in IFN-γ ELISPOT assays", "setting": "[14]", "value": "robust T cell responses"}]}
